Experimental data: patent US20240285769A1, “INJECTABLE, BIODEGRADABLE AND REMOVABLE POLYMER BASED DRUG SUSPENSION FOR ULTRA-LONG-ACTING DRUG DELIVERY” (The University of North Carolina at Chapel Hill, priority 2021, published 2024)
Counter-ions that a name gives are not always drawn. Blank lines part the entries; values can stand above or below the compound they belong to.

Legend:
[1] = Preparation and optimization of drug suspension formulations; format: physicochemical; conditions: for depot formation when injected into aqueous release medium: PBS, pH 7.4, 37° C.
Protocol: The polymer based drug suspensions were prepared by: (1) Placebo formulation: 50:50 Poly(DL-lactide-co-glycolide) (PLGA), MW 10 or 27 kDa, or Poly(lactic acid) (PLA) MW 10 kDa, was mixed with N-methyl-2-pyrrolidone (NMP) or a combination of NMP and DMSO (e.g. 1:1 v/v) at various weight ratios of PLGA/solvent (w/w) and allowed to dissolve by continuous mixing at room temperature (Placebo). […] (2) Drug loading: […] (3) Depot formation: A sample from the resulting drug-loaded suspension formulation (30 μL, 30±3 mg) was injected into 200 mL of 0.01 M PBS pH 7.4 using a pipette and incubated at 37° C. for 24 h to produce a spherical implant, as an example. […] Of importance, but without being limited to any particular theory or mechanism of action, is the ratio of the polymer:solvent:drug that achieves high drug loading in a stable polymeric suspension formulation and which is correlated to the drug's saturation solubility in the solvent system.

[2] = In vivo pharmacokinetics of MPT ISFI formulations; parameters: species or system mice
Protocol: FIGS. 18A to 18E. Drug concentrations in plasma of MPT ISFI formulations. Plasma concentrations of (FIG. 18A) DTG (278 mg/kg, 50 μL injection) when co-formulated with MPA or ENG (n=6-12/timepoint per group), (FIG. 18B) CAB (1215 mg/kg, 50 μL injection) when co-formulated with MPA or ENG (n=6-12/timepoint per group), (FIG. 18C) MPA (70-76 mg/kg, 50 μL injection) when co-formulated with DTG or CAB (n=6-12/timepoint per group), and (FIG. 18D) ENG (70-151 mg/kg, 50 μL injection) when co-formulated with DTG or CAB (n=6-12/timepoint per group). […] (FIG. 18E) R^2 values for mathematical models of zero-order, first-order, and diffusion-controlled (Higuchi) release.
Pharmacokinetic (PK) studies were carried out in mice over 90 days to assess in vivo drug release of MPT ISFI formulations. DTG, CAB, ENG, and MPA plasma concentrations were quantified using a high-performance liquid chromatography-tandem mass spectrometry LC/MS-MS method and were plotted over 90 days (FIG. 18).
Moreover, the release kinetics of DTG, CAB, MPA, and ENG were assessed against three mathematical models (zero-order, first-order, and diffusion-controlled (Higuchi) (Gouda, Baishya et al. 2017)).

HIV = conditions: protein-adjusted, cited from earlier work; for 4×PA-IC90: benchmark for protection
[3] = Drug saturation solubility studies; format: physicochemical; conditions: for solubility: 21 °C, thermodynamic from solid
Protocol: The saturation concentration of each drug in various solvents and/or solvent combinations was determined. Drugs were then formulated in ISFI formulations containing 1:1, 1:1.5, 1:2, or 1:4 w/w ratios of PLGA/solvent, as exemplary starting points. For example, for DTG, 25 mg of DTG was added to individual vials containing 100 mg of solvent or PLGA/N-MP placebo ISFI solution. The mixture was mixed thoroughly using a vortex with short-warming for several cycles, and stirred at room temperature (RT), e.g. about 20-22° C., for about 24-48 h. Samples were subsequently centrifuged for 30 min at 13,000 rpm (Eppendorf Centrifuge 5417C, USA) to remove excess undissolved drug. Sample aliquots (1 mg, n=4) were collected from the saturated supernatant and diluted with acetonitrile (ACN). Drug concentration in the saturated aliquots was determined by HPLC analysis.
A reverse-phase HPLC analysis was carried out with a Finnigan Surveyor HPLC system (Thermo Finnigan, San Jose, California, USA) with a Photodiode Array (PDA) Plus Detector, auto-sampler, and LC Pump Plus. The stationary phase utilized for the analysis was a Inertsil ODS-3 column (4 μm, 4.6 Å˜150 mm, [GL Sciences, Torrance, CA]) maintained at 40° C. Chromatographic separation was achieved by gradient elution using a mobile phase consisting of 0.1% trifluoroacetic acid in water and ACN (H2O/ACN 95:5 v/v). The flow rate was 1.0 mL/min and the total run time was 25 min for each 25 μL injection.

[4] = Suspension stability studies; format: physicochemical; conditions: polymer:solvent 1:2
Protocol: Eight (8) formulations were prepared and evaluated for stability. The formulations were placed in a water bath at 37° C. with shaking overnight and then vortexed for about 2 min upon removal. Sample aliquots (about 1 mg, n=4) were collected from each formulation and analyzed by HPLC to determine drug homogeneity distribution within the formulation. All suspension formulations were reevaluated for homogeneity after at least 24 h storage at room temperature (RT) to determine stability of suspensions at RT.

[5] = CAB MPT ISFI in vitro release studies; format: physicochemical; conditions: for in vitro release as single-drug ISFI versus co-formulated: CAB with either hormone, MPA or ENG with CAB (ENG up to 60 days)
Protocol: Drug release kinetics from various implant formulations was evaluated by incubating solid implants (25 mg±5 mg) into 200 mL of release medium under sink conditions (0.01 M PBS pH 7.4 with 2% solutol HS) at 37° C. for up to 6 months. Sample aliquots (1 mL) were collected at various time points and replaced with fresh release medium. The release medium was completely removed and replaced with fresh medium every week to maintain sink conditions. Drug concentration in the release samples was quantified by HPLC using the method described above. Cumulative drug release was calculated from the HPLC analysis and normalized to the total mass of drug in the implant. All experiments were performed in quadruplicate.
In vitro release of single-drug ISFIs vs. MPT ISFIs were evaluated to assess drug-drug interactions. All ISFI liquid suspensions were stable and homogenous, elicited <15% burst release, sustained release for 90 days, and above target release rates.

[6] = published CAB population PK model, mean parameter; cited from earlier work
[7] = In vitro release of chemotherapeutic ISFIs; format: physicochemical
Protocol: ISFI formulations were prepared with two different chemotherapeutic drugs, paclitaxel (PTX) and gemcitabine (Gem) and investigated for in vitro release kinetics (PTX and Gem ISFIs; FIGS. 21A-21C and 22A-22B) and for in vivo safety and pharmacokinetics (PTX ISFI; FIG. 23).

[8] = DMSO, organic solvent or mixture, solvent DMSO
[9] = 167 mg/g in 6:1 w/w PLA (10 kDa):Pluronic L61, NMP
[10] = 200 mg/g in 9:1 w/w PLA (10 kDa):Pluronic L61, NMP

Compound: C[C@@H]1CCO[C@H]2Cn3cc(C(=O)NCc4ccc(F)cc4F)c(=O)c(O)c3C(=O)N12 [DTG, Dolutegravir]
suspension formation when loaded above saturation concentration in PLGA/solvent placebo [1]: formed stable syringeable formulations | depot formation when injected into aqueous release medium [1]: formation of stable depots | plasma concentrations when co-formulated with either hormone (MPA or ENG) ([2]; mouse, in vivo): no difference (p>0.05) | 4×PA-IC90 (HIV): 0.256 µg/mL | 1×PA-IC90 (HIV): 0.064 µg/mL | solubility [3, 8]: 55 ± 4.5 mg/mL | solubility ([3]; NMP, organic solvent or mixture, solvent NMP): 269 ± 7.25 mg/mL | solubility ([3]; NMP:DMSO (1:1 w/w), organic solvent or mixture, solvent NMP:DMSO (1:1 w/w)): 229.3 ± 1.6 mg/mL | Saturation Solubility ([3]; solvent PBS + 2% Solutol): 0.56 ± 0.004 mg/mL

Compound: CC(=O)O[C@]1(C(C)=O)CC[C@H]2[C@@H]3C[C@H](C)C4=CC(=O)CC[C@]4(C)[C@H]3CC[C@@]21C [MPA, medroxyprogesterone acetate]
best-fit model of in vivo release ([2]; MPT ISFIs, 90-day PK): zero-order release model | plasma concentrations over the study ([2]; in MPT ISFIs, 90-day study): maintained during the 90-day study | in vitro release as single-drug ISFI versus co-formulated [5]: difference (p<0.05) | solubility ([3]; organic solvent or mixture, solvent NMP:DMSO (1:1 w/w)): 33.6 ± 0.9 mg/mL

Compound: C[C@H]1CO[C@@H]2Cn3cc(C(=O)NCc4ccc(F)cc4F)c(=O)c(O)c3C(=O)N12 [CAB, Cabotegravir]
suspension formation when loaded above saturation concentration in PLGA/solvent placebo [1]: formed stable syringeable formulations | depot formation when injected into aqueous release medium [1]: formation of stable depots | plasma concentrations when co-formulated with either hormone (MPA or ENG) ([2]; mouse, in vivo): no difference (p>0.05) | in vitro release as single-drug ISFI versus co-formulated [5]: comparable (p>0.05) | CL [6]: 151 mL/h | Q [6]: 507 mL/h | V2 [6]: 5270 mL | V3 [6]: 2430 mL | 4×PA-IC90 (HIV): 0.664 µg/mL | 1×PA-IC90 (HIV): 0.166 µg/mL | solubility ([3]; (NMP:DMSO 1:1 w/w):Tween 20 (9:1 w/w), organic solvent or mixture, solvent (NMP:DMSO 1:1 w/w):Tween 20 (9:1 w/w)): 107 ± 3.05 mg/mL | solubility [3, 8]: 38 mg/mL | solubility ([3]; NMP:DMSO (2:8 w/w), organic solvent or mixture, solvent NMP:DMSO (2:8 w/w)): 52.2 ± 6.39 mg/mL | solubility ([3]; NMP:DMSO (9:1 w/w), organic solvent or mixture, solvent NMP:DMSO (9:1 w/w)): 144 ± 1.99 mg/mL | solubility ([3]; NMP:Gelucire 44/14 (9:1 w/w), organic solvent or mixture, solvent NMP:Gelucire 44/14 (9:1 w/w)): 134 ± 3.81 mg/mL | solubility ([3]; NMP:HP-b-CD (6:4 w/w), organic solvent or mixture, solvent NMP:HP-b-CD (6:4 w/w)): 89.6 ± 5.49 mg/mL | solubility ([3]; NMP:HP-b-CD (9:1 w/w), organic solvent or mixture, solvent NMP:HP-b-CD (9:1 w/w)): 158.2 ± 1.12 mg/mL | solubility ([3]; NMP:b-CD (6:4 w/w), organic solvent or mixture, solvent NMP:b-CD (6:4 w/w)): 81.8 ± 2.35 mg/mL | solubility ([3]; PBS, aqueous buffer, solvent PBS): 0.014 ± 0.001 mg/mL | Saturation Solubility ([3]; solvent DMSO): 38.0 mg/mL | Saturation Solubility ([3]; solvent NMP): 131.7 ± 3.66 mg/mL | Saturation Solubility ([3]; solvent NMP:DMSO (1:1 w/w)): 167.12 ± 12.04 mg/mL | Saturation Solubility ([3]; solvent PBS + 2% Solutol): 0.06 ± 0.002 mg/mL

Compound: CC(=O)O[C@H]1C(=O)[C@@]2(C)[C@H]([C@H](OC(=O)c3ccccc3)[C@]3(O)C[C@H](OC(=O)[C@H](O)[C@@H](NC(=O)c4ccccc4)c4ccccc4)C(C)=C1C3(C)C)[C@]1(OC(C)=O)CO[C@@H]1C[C@@H]2O [PTX, paclitaxel]
in vitro release from ISFI [7]: exhibited sustained release in vitro | burst release in 24 h ([7]; ISFI): < 2% | sustained release duration ([7]; ISFI): > 60 days

Compound: Nc1ccn([C@@H]2CS[C@H](CO)O2)c(=O)n1 [3TC, lamuvidine]
suspension formation when loaded above saturation concentration in PLGA/solvent placebo [1]: did not form successful suspensions

Compound: C[C@H]1CO[C@@H]2Cn3cc(C(=O)NCc4ccc(F)cc4F)c(=O)c(O)c3C(=O)N12 [CAB—Na salt, Cabotegravir sodium]
Saturation Solubility ([3]; solvent DMSO): 31.6 ± 0.96 mg/mL | Saturation Solubility ([3]; solvent NMP): 47.5 ± 1.72 mg/mL | Saturation Solubility ([3]; solvent NMP:DMSO (1:1 w/w)): 49.1 ± 1.2 mg/mL | Saturation Solubility ([3]; solvent PBS + 2% Solutol): 1.83 ± 0.7 mg/mL

The next lines start with the values.

suspension formation when loaded above saturation concentration in PLGA/solvent placebo [1]: did not form successful suspensions | depot formation when injected into aqueous release medium [1]: did not form a stable spherical depot | 24 h-Burst [4, 9]: 64% | Depot Forming [4, 9]: YES | 24 h-Burst [4, 10]: 58% | Depot Forming [4, 10]: YES
Compound: C#C[C@]1(CO)O[C@@H](n2cnc3c(N)nc(F)nc32)C[C@@H]1O [EFdA, Islatravir]

plasma concentrations over the study ([2]; mouse, in vivo): maintained during the 90-day study | in vitro release as single-drug ISFI versus co-formulated [5]: no difference (p>0.05) | in vitro release as single-drug ISFI versus co-formulated with CAB ([5]; beyond 60 days): significantly different (p<0.05)
Compound: C#C[C@]1(O)CC[C@H]2[C@@H]3CCC4=CC(=O)CC[C@@H]4[C@H]3C(=C)C[C@@]21CC [ENG, entonogestrel]

in vitro release from ISFI [7]: exhibited sustained release in vitro
Compound: Nc1ccn([C@@H]2O[C@H](CO)[C@@H](O)C2(F)F)c(=O)n1 [Gem, gemcitabine]
